Experimental data reported in patent US20250099420A1, “SMALL MOLECULE MODULATORS OF GPR139 COMPLEX” (University of Florida Research Foundation, Incorporated, priority 2022, published 2025).
Where two headings read alike, the source gives them in different places.

What was measured:
parental HEK cells = assay: HEK parental Agonist Counterscreen Assay (non-transfected cells); format: cell-based; details: for Averaged Max % Response (±St. Dev.): activity relative to known control
Excerpt: The high control for the agonist counterscreen was Forskolin not acetylcholine.

GPR139 = molecular target: T1, GPR139 (Homo sapiens, UniProt Q6DWJ6); assay: GPR139 Agonist titration / agonist counterscreen assay (calcium detection, HEK-GPR139 cells); format: cell-based; design: expressed in transfected cells; host or cells: HEK Aequorin cells, Maxcyte transient transfection; details: GPR139 Agonist Activity; for Averaged Max % Response (±St. Dev.): activity relative to known control; for EC50: read-out: EC50
T1 sequence (Q6DWJ6 1-353): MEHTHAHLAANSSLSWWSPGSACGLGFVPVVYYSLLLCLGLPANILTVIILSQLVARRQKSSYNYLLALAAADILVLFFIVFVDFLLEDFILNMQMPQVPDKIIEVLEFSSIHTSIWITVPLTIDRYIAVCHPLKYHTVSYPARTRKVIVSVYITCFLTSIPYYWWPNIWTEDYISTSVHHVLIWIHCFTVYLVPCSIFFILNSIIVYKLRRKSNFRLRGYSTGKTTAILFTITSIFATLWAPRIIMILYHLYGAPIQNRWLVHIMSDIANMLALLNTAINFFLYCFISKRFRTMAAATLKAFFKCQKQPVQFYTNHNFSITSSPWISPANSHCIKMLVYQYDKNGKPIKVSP
Description: GPR activity was assessed using a calcium detection assay. […] Negative control samples were treated with DMSO. […] Intracellular calcium was measured using Calcium 5.

[1] = Homo sapiens, HEK293, HEK Agonist Activity, parental non-transfected HEK cells
[2] = values printed in E-notation without unit
[3] = HEK Agonist Activity section of Table 4 (parental HEK counterscreen)

SMILES | Lipophilic Efficiency (logD) (parental HEK cells; HEK Agonist Activity) | Lipophilic Efficiency (logP) (parental HEK cells; HEK Agonist Activity) | Averaged Max % Response (±St. Dev.) (parental HEK cells; HEK Agonist Activity) | EC50 (parental HEK cells; [1]) | Averaged Max % Response (±St. Dev.) (GPR139) | Lipophilic Efficiency (logD) (GPR139; based on logD) | Lipophilic Efficiency (logP) (GPR139; based on logP) | Hill Slope (GPR139; fitted dose-response curve) | Efficiency Ligand (GPR139; ligand efficiency) | EC50 (GPR139; [2]) | Lipophilic Efficiency (logD) (parental HEK cells; HEK Agonist Activity section) | Lipophilic Efficiency (logP) (parental HEK cells; HEK Agonist Activity section) | EC50 (parental HEK cells; [3]) | Averaged Max % Response (±St. Dev.) (parental HEK cells; HEK Agonist Activity section) | Efficiency Ligand (GPR139) | Hill Slope (GPR139) | Lipophilic Efficiency (logD) (GPR139) | Lipophilic Efficiency (logP) (GPR139) | EC50 (GPR139; HEK-GPR139 cells) | EC50 (parental HEK cells; Homo sapiens, HEK293, HEK Agonist Activity section of Table 4 (parental HEK counterscreen))
Cc1cc(C(=O)CCC(=O)NNC(=O)CSc2nc3ccccc3s2)c(C)s1 [SR-01000070591] | 1.00 | 1.00 | −5.74 ± 0.47% | > 14300 nM | 126.06 ± 10.32% | 4.02 | 4.02 | 0.31 | 0.39 | 13.6 nM |  |  |  |  |  |  |  |  |  | 
O=C(Cn1nnc(-c2ccccc2)n1)NNC(=O)Cn1c(C(F)(F)F)nc2ccccc21 [SR-01000070891] | 1.86 | 1.83 | 8.31 ± 6.92% | > 15200 nM | 105.87 ± 4.30% | 4.97 | 4.93 | 0.88 | 0.35 | 11.9 nM |  |  |  |  |  |  |  |  |  | 
O=C(COc1ccccc1Cl)NNC(=O)CSc1ccc2ccccc2c1 [SR-01000071098] | 1.38 | 1.37 | 24.54 ± 7.58% | > 14100 nM | 108.04 ± 6.43% | 4.08 | 4.08 | 0.77 | 0.39 | 27.4 nM |  |  |  |  |  |  |  |  |  | 
Cc1cccc(Cc2cnc(NC(=O)CC(C)C)s2)c1 [SR-01000071221] | 0.08 | 0.08 | 19.19 ± 7.12% | > 15600 nM | 129.99 ± 9.49% | 2.68 | 2.68 | 1.13 | 0.52 | 39.6 nM |  |  |  |  |  |  |  |  |  | 
CCCCn1c(C)c(N(CC)C(=O)C(C)(C)Oc2ccc(C)cc2)c(=O)[nH]c1=O [SR-01000071222] | 2.01 | 2.01 | 4.62 ± 5.04% | > 14700 nM | 126.32 ± 18.07% | 5.83 | 5.82 |  | 0.42 |  |  |  |  |  |  |  |  |  |  | 
CCOc1ccccc1NC(=O)CN1C(=O)NC(C)(c2ccc(Cl)cc2Cl)C1=O (stereo not drawn) [SR-01000072797] |  |  |  |  | 94.94 ± 8.96% |  |  |  |  |  | 1.39 | 1.39 | > 14200 nM | 4.41 ± 6.50% | 0.29 | 0.87 | 2.52 | 2.52 | 1000 nM | 
Cc1ccc(C)c(C(=O)CCC(=O)NNC(=O)CSc2nc3ccccc3o2)c1 [SR-01000073202] | 1.04 | 1.04 | 12.21 ± 5.38% | > 14500 nM | 119.67 ± 15.04% | 4.38 | 4.38 |  | 0.39 | > 6.6 nM |  |  |  |  |  |  |  |  |  | 
Nc1c(Cl)c(Cl)nc(C(=O)OCC(=O)NCc2ccccc2)c1Cl [SR-01000073564] |  |  |  |  | 129.62 ± 8.33% | 4.46 | 4.46 | 0.59 | 0.42 | 58.6 nM | 2.07 | 2.07 |  | 8.96 ± 14.03% |  |  |  |  |  | > 14500 nM
CC1(c2ccc3c(c2)OCO3)NC(=O)N(CC(=O)Nc2ccccc2[N+](=O)[O-])C1=O (stereo not drawn) [SR-01000074154] |  |  |  |  | 109.38 ± 5.55% | 5.22 | 5.22 | 0.54 | 0.32 | 147 nM | 3.21 | 3.20 | > 15000 nM | 11.86 ± 8.71% |  |  |  |  |  | 
